The structures appear in SMILES notation.

Here are results for 14 compounds from US20240424011A1, “COMBINATION THERAPY OF HYPOXIA-RESPONSIVE PRODRUG OF AN ANTICANCER DRUG AND RADIOTHERAPY, AND NOVEL HYPOXIA-RESPONSIVE PRODRUG” (UNIVERSITY OF TSUKUBA, priority 2021, published 2024).

The subject of data set [1] is human breast cancer cells (MCF7). Kind of data set: MCF7 subcutaneous implant in mice, doxorubicin or its HAP with radiotherapy. It counts as in vivo, Balb/c nude mice. The note with it: i.p. 4 or 16 mg/kg plus 0.5 Gy. On the procedure: Balb/c nude mice (6 mice or more per group) were subcutaneously implanted with […] sustained-release pellets (produced by Innovative Research of America) and human breast cancer cells (MCF7), and intraperitoneally administered with doxorubicin (4 mg/kg. Day 0 and 2) or doxorubicin HAP 4 mg/kg, or 16 mg/kg, Day 0, 2, 7 and 9) to examine the synergistic effect with radiotherapy (0.5 Gy, Day 1, 3, 8 and 10). The results are shown in a lower panel of FIG. 16.

The subject of a further data set is hypoxic cells. The note with it: compared to typical radiotherapy alone; cited from earlier work.
Data set [2] deals with Human breast cancer cells (MCF-7). Kind of data set: cell viability of MCF-7 at normal and low oxygen concentration, 2 days. The format is cell-based. As to conditions: MCF-7, normal vs lower (0.2%) oxygen, FIG. 9, 11. The text has this:
The results are illustrated in FIG. 11.

For data set [3], the system named is Human pancreatic cancer cells (MIA Paca-2). Kind of data set: MIA Paca-2 subcutaneous implant in mice, palbociclib or its HAP with radiotherapy. It counts as in vivo, Balb/c nude mice. The note with it: oral 100 mg/kg twice/week plus 2 Gy; vs radiation alone and vs palbociclib plus radiation, FIG. 10. On the procedure: Human pancreatic cancer cells (MIA Paca-2) were subcutaneously implanted into Balb/c nude mice (6 mice per group), and palbociclib or palbociclib HAP was orally administered (100 mg/kg, twice/week) to examine the synergistic effect with radiotherapy (2 Gy on the day after drug administration, twice/week).

The subject of data set [4] is Human breast cancer cells (MDA-MB-231). Kind of data set: cell viability of MDA-MB-231 at normal and low oxygen concentration, 4 days. It counts as cell-based. The note with it: MDA-MB-231, normal vs lower (0.2%) oxygen, FIG. 7.
For data set [5], the system named is human breast cancer cells (MCF7). Kind of data set: MCF7 subcutaneous implant in mice, ribociclib or its HAP with radiotherapy. The note with it: oral 75 mg/kg twice/week plus 1 Gy; vs radiation alone or ribociclib plus radiation, FIG. 11. The format is in vivo, Balb/c nude mice. The method, then:
A 17β-estradiol sustained-release pellet (manufactured by Innovative Research of America) and human breast cancer cells (MCF7) were subcutaneously implanted to Balb/c nude mice (6 mice per group), and ribociclib or ribociclib HAP was orally administered (75 mg/kg, twice/week) to examine the synergistic effect with radiotherapy (1 Gy, on the day after drug administration, twice/week). The results are illustrated in a lower panel of FIG. 11.

Data set [6] concerns Human pancreatic cancer cells (MIA Paca-2). The data set is described as follows: In vivo study 1: MIA Paca-2 implant, gemcitabine or its HAP 120 mg/kg with radiotherapy. Also noted: species or system Balb/c nude mice. As to conditions: i.p. 120 mg/kg twice/week plus 2 Gy; for tumor growth inhibitory effect: vs radiation monotherapy, FIG. 12. The method, then: Human pancreatic cancer cells (MIA Paca-2) were subcutaneously implanted into Balb/c nude mice (6 or 7 mice per group), respectively, and gemcitabine or gemcitabine HAP (prepared according to the method described in Examples of JP 5676020 B2) was intraperitoneally administered (120 mg/kg, twice/week) to examine the synergistic effect of the combination therapy with radiotherapy (2 Gy, on the day after drug administration, twice/week).

In data set [7] the test system is Human cholangiocarcinoma cells (HuCCT1). Kind of data set: In vivo study 3: HuCCT1 implant, gemcitabine or its HAP 30 mg/kg with radiotherapy. The arrangement: species or system Balb/c nude mice. The note with it: i.p. 30 mg/kg twice/week plus 2 Gy; for tumor growth inhibitory effect: vs radiation monotherapy, FIG. 15. The method, then: Human cholangiocarcinoma cells (HuCCT1) were subcutaneously implanted into Balb/c nude mice (5 mice per group), respectively, and gemcitabine or gemcitabine HAP was intraperitoneally administered (30 mg/kg, twice/week), respectively to examine the synergistic effect of the combination therapy with radiotherapy (2 Gy, on the day after drug administration, twice/week).

The subject of data set [8] is Human malignant melanoma (A375) cells. The data set is described as follows: cell viability of A375 at normal and low oxygen concentration, 2 days. The format is cell-based. As to conditions: A375, normal vs lower (0.2%) oxygen, FIG. 5, 6, 8.
Data set [9] has as its system Human breast cancer cells (MDA-MB-231). The data set is described as follows: cell viability of MDA-MB-231 at normal and low oxygen concentration, 2 days. The format is cell-based. The note with it: MDA-MB-231, normal vs low oxygen concentration (0.2%), FIG. 1.
The subject of the next data set is PARP. Kind of data set: detection of poly ADP ribosylated (PARylated) proteins by Western blotting. It counts as cell-based, Human. As to conditions: hypoxic environment, FIG. 2. The text has this: To determine whether the targeted PARP activity was inhibited under a hypoxic environment, proteins were recovered from the cells and poly ADP ribosylated (PARylated) proteins were detected by Western blotting.
Background: Immunoblotting shows a protein as a band on a membrane.

A further data set has as its system MDA-MB-231 cells. Kind of data set: MDA-MB-231 subcutaneous implant in mice, drug combined with radiotherapy. It counts as in vivo, Balb/c nude mice. The note with it: oral 50/100 mg/kg plus 0.5 Gy; for tumor growth inhibitory effect: compared with radiation monotherapy, FIG. 3. The method, then:
Balb/c nude mice (6 or 7 mice per group) were each subcutaneously implanted with MDA-MB-231 cells, and administered with niraparib or niraparib HAP to analyze the synergistic effect with radiotherapy.
Irradiation: 1 hour of drug administration followed by irradiation at 0.5 Gy

In data set [10] the test system is Human pancreatic cancer cells (MIA Paca-2). Kind of data set: In vivo study 2: MIA Paca-2 implant, gemcitabine or its HAP 10 mg/kg with radiotherapy. As to conditions: i.p. 10 mg/kg twice/week plus 1 Gy, vs radiation monotherapy and gemcitabine plus radiation. The arrangement: species or system Balb/c nude mice. The method, then: Human pancreatic cancer cells (MIA Paca-2) were subcutaneously implanted to Balb/c nude mice (6 mice per group), and gemcitabine or gemcitabine HAP was intraperitoneally administered (10 mg/kg, twice/week) to examine the synergistic effect of the combination therapy with radiotherapy (1 Gy, on the day after drug administration, twice/week).

In data set [11] the test system is Human cancer cells (MIA Paca-2). Kind of data set: In vivo study 2 (part 2): MIA Paca-2 implant, comparison with 2-nitroimidazole, with irradiation. Also noted: species or system Balb/c nude mice. The note with it: i.p. 10 mg/kg twice/week plus 1 Gy; vs radiation alone, 2-nitroimidazole, and gemcitabine plus 2-nitroimidazole, FIG. 14. The method, then: Human cancer cells (MIA Paca-2) were subcutaneously implanted into Balb/c nude mice (7 mice per group), respectively, and 2-nitroimidazole (10 mg/kg, twice/week), 2-nitroimidazole and gemcitabine (10 mg/kg respectively, twice/week), and gemcitabine HAP (10 mg/kg, twice/week) were intraperitoneally administered to examine the synergistic effect of the combination therapy with irradiation (1 Gy, on the day after drug administration, twice/week).

The subject of the next data set is malignant tumor. The data set is described as follows: therapy combined with radiotherapy (in vivo), summary in the disclosure. Also noted: species or system experimental animals. The text has this:
Nevertheless, we investigated if there exists benefit or not in the therapy combined with radiotherapy using the PropHAP of gemcitabine. […] Even if the dose of the drug was increased, the effect stayed the same. […] Each PropHAP differs from gemcitabine in its chemical structure of the anticancer drug and the mechanism of action on tumors.

Setting [12] is: compared with niraparib-administered group.
Where [13] appears, read: vs gemcitabine-administered group.
Setting [14] is: with radiotherapy, radiation dose at which the parent compound causes side effects such as weight loss.

In the case of `COc1cccc2c1C(=O)c1c(O)c3c(c(O)c1C2=O)CC(O)(C(=O)CO)CC3OC1CC(NC(=O)CCn2ccnc2[N+](=O)[O-])C(O)C(C)O1` (centres unmarked) [doxorubicin HAP], in [1] (vs doxorubicin-administered group), the weight loss result is listed as “did not show the weight loss”. Further, the “tumor growth inhibitory effect” value in data set [1] (vs radiotherapy alone and doxorubicin plus radiation, FIG. 16) was “tumor growth inhibitory effect was enhanced when radiation was used in combination”.

For the compound `O=C(Cn1ccnc1[N+](=O)[O-])NCCO` [etanidazole], in the data set with hypoxic cells, the survival rate entry was “no significant improvement statistically in survival rate”.

Regarding `CC(=O)c1c(C)c2cnc(Nc3ccc(N4CCN(C(=O)CCn5ccnc5[N+](=O)[O-])CC4)cn3)nc2n(C2CCCC2)c1=O` [Compound 17], the “cytotoxicity (cell viability)” value in data set [2] was “cytotoxicity is recovered at the low oxygen concentration”. In [3], the “tumor growth inhibitory effect” value is “tumor growth inhibitory effect was enhanced when radiation was used in combination”.

With `O=C(CCn1ccnc1[N+](=O)[O-])Nc1ccccc1NC(=O)c1ccc(CNC(=O)OCc2cccnc2)cc1` [Compound 13], in data set [4], the “cytotoxicity (cell viability)” value is “cytotoxicity is recovered at the low oxygen concentration”.

Take `CN(C)C(=O)c1cc2cnc(Nc3ccc(N4CCN(C(=O)CCn5ccnc5[N+](=O)[O-])CC4)cn3)nc2n1C1CCCC1` [Compound 19]: the “cytotoxicity (cell viability)” value in [2] is “cytotoxicity is recovered at the low oxygen concentration”. Also, the “tumor growth inhibitory effect” value in data set [5] is listed as “tumor growth inhibitory effect was enhanced when radiation was used in combination”.

On to `Nc1ccn([C@@H]2O[C@H](CO)[C@@H](O)C2(F)F)c(=O)n1` [gemcitabine, reference compound], for which the “tumor growth inhibitory effect” value in data set [6] and in data set [7] was “tumor growth inhibitory effect was enhanced” throughout.

Consider `CC(C)(C)c1nc(-c2cccc(NS(=O)(=O)c3c(F)cccc3F)c2F)c(-c2ccnc(NC(=O)CCn3ccnc3[N+](=O)[O-])n2)s1` [Compound 9], for which the “cytotoxicity (cell viability)” value in data set [8] is on record as “cytotoxicity is recovered at the low oxygen concentration”.

As for `NC(=O)c1cccc2cn(-c3ccc(C4CCCN(C(=O)CCn5ccnc5[N+](=O)[O-])C4)cc3)nc12` (centres unmarked) [Compound 3], the “cytotoxicity (cell viability)” value in data set [9] is recorded as “cytotoxicity is recovered at the low oxygen concentration”. The “PARP activity (PARylated proteins)” value in the data set on PARP is reported as “PARP activity is specifically inhibited under the low oxygen environment”. In addition, in the data set on MDA-MB-231 cells (setting [12]), the body weight entry is “no decrease in body weight” and the survival rate entry is on record as “improved survival rate”. The “tumor growth inhibitory effect” value with MDA-MB-231 cells is given as “tumor growth inhibitory effect is enhanced”.

As to `O=C(CCn1ccnc1[N+](=O)[O-])Nc1ccn([C@@H]2O[C@H](CO)C(O)C2(F)F)c(=O)n1` (stereo in doubt) [gemcitabine HAP], the results for the body weight result in [6] (setting [13]) and in data set [7] (setting [13]) were “no decrease in body weight” and “did not show a decrease in body weight”, respectively. In addition, in [6] (setting [13]), the survival rate entry is given as “improved survival rate”. Further, the “tumor growth inhibitory effect” value in data set [6] was “tumor growth inhibitory effect was enhanced”; in [10] (FIG. 13), “effect was higher than that of gemcitabine”; in data set [10] (FIG. 13, listed as gemcitabine-HAP), “tumor growth inhibitory effect was enhanced”; in data set [11], “tumor growth inhibitory effect was enhanced”; in data set [7], “tumor growth inhibitory effect was enhanced”. Also, the anticancer effects result in the data set with malignant tumor (radiation and drug dose at which the parent shows no side effect, vs radiation alone, parent alone, parent plus radiotherapy) is given as “significantly superior anticancer effects”. Besides, in the data set with malignant tumor (setting [14]), the therapeutic effect result is recorded as “almost equivalent to that of the parent compound”. For the same compound, the weight loss result with malignant tumor (setting [14]) is reported as “not resulting in a significant weight loss”.

As to `NC(=O)c1cccc2cn(-c3ccc([C@@H]4CCCNC4)cc3)nc12` [niraparib, reference compound], the “tumor growth inhibitory effect” value with MDA-MB-231 cells was “tumor growth inhibitory effect is enhanced”.

In the case of `CCCS(=O)(=O)Nc1ccc(F)c(C(=O)c2cn(C(=O)CCn3ccnc3[N+](=O)[O-])c3ncc(-c4ccc(Cl)cc4)cc23)c1F` [Compound 11], the “cytotoxicity (cell viability)” value in data set [8] was “cytotoxicity is recovered at the low oxygen concentration”.

In the case of `O=C(c1ccc(F)c(F)c1Nc1ccc(I)cc1F)N1CC(O)([C@@H]2CCCCN2C(=O)CCn2ccnc2[N+](=O)[O-])C1` [Compound 15], the “cytotoxicity (cell viability)” value in data set [8] was “cytotoxicity is recovered at the low oxygen concentration”.

`O=[N+]([O-])c1nccn1CC(O)CN1CCCCC1` (centres unmarked) [pimonidazole]: the survival rate entry in the data set with hypoxic cells was “no significant improvement statistically in survival rate”.

Turning to `O=[N+]([O-])c1cncn1CCN1CCOCC1` [nimorazole], the survival rate result in the data set with hypoxic cells is “no significant improvement statistically in survival rate”.
